From ChEMBL document CHEMBL2169819, “Synthesis and biological evaluation of 2-amino-3-(4-chlorobenzoyl)-4-[(4-arylpiperazin-1-yl)methyl]-5-substituted-thiophenes. effect of the 5-modification on allosteric enhancer activity at the A1 adenosine receptor” (J Med Chem, 2012) come the findings set out here.

Molecules are shown by their SMILES. Calls of active or inactive are those of the source. No cut-off for these calls is given here.

As usually defined, the inhibition is the change of the read-out against control, counted positive when it falls.

Assay [1] addresses T1, Adenosine receptor A3 (Homo sapiens) (UniProt P0DMS8).
T1 sequence (whole entry): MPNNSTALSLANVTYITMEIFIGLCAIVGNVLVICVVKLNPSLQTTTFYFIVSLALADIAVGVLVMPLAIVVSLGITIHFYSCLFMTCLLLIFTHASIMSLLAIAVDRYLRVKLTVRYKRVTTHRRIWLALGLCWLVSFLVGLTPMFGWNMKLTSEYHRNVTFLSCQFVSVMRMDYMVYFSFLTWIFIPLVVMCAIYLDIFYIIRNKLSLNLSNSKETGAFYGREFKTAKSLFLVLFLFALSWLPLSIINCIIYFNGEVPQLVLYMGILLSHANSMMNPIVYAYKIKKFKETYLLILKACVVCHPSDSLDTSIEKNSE
The experiment in a line: Displacement of [3H]MRE-3008-F20 from human adenosine A3 receptor expressed in CHO cells at 10 uM after 120 mins by scintillation counting. It is filed as cell-based.

Assay [2] deals with T2, Adenosine receptor A1 (Homo sapiens) (UniProt P30542).
T2 sequence (whole entry): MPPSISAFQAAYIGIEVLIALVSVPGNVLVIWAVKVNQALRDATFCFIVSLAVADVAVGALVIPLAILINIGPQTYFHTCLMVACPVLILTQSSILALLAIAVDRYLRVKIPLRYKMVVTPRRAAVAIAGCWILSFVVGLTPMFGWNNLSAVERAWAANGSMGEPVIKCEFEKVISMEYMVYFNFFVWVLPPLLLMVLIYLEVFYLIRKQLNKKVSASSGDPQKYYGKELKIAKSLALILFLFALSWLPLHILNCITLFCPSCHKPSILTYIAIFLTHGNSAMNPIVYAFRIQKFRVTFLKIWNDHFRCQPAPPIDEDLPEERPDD
The experiment in a line: Allosteric enhancing activity at human adenosine A1 receptor expressed in CHO cells assessed as increase in [3H]-2-chloro-N6-cyclopentyladenosine Bmax at 10 uM after 90 mins relative to control. Format: cell-based.

The target of assay [3] is T2, Adenosine receptor A1 (Homo sapiens). Kind of assay: Allosteric enhancing activity at human adenosine A1 receptor expressed in CHO cells assessed as inhibition of forskolin-stimulated cAMP accumulation at 100 nM incubated for 10 mins prior to forskolin-stimulation measured after 5 mins by competition protein binding assay in presence of 2-chloro-N6-cyclopentyladenosine. It is filed as functional, cell-based. For orientation: Cyclic AMP is a second messenger, typically raised through Gs and lowered through Gi signalling.

For assay [4] the target is unchanged. Kind of assay: Allosteric enhancing activity at human adenosine A1 receptor expressed in CHO cells assessed as increase in CCPA-induced [3H]DPCPX displacement at 10 uM after 90 mins relative to control. It is filed as cell-based.
Assay [5] has the same target. The experiment in a line: Allosteric enhancing activity at human adenosine A1 receptor expressed in CHO cells assessed as inhibition of forskolin-stimulated cAMP accumulation at 10 uM incubated for 10 mins prior to forskolin-stimulation measured after 5 mins by competition protein binding assay. It is filed as functional, cell-based.
Assay [6] shares this target. The experiment in a line: Displacement of [3H]DPCPX from human adenosine A1 receptor expressed in CHO cells at 10 uM after 120 mins by scintillation counting. Format: cell-based. (In general: In a radioligand displacement assay an active substance lowers the binding of a labelled ligand.)
Assay [7] has as its target Adenosine receptor A2a (Homo sapiens) (UniProt P29274). The experiment in a line: Displacement of [3H]ZM241385 from human adenosine A2A receptor expressed in CHO cells at 10 uM after 120 mins by scintillation counting. It is filed as cell-based.

Sequence of Adenosine receptor A2a (Homo sapiens) (P29274 whole entry): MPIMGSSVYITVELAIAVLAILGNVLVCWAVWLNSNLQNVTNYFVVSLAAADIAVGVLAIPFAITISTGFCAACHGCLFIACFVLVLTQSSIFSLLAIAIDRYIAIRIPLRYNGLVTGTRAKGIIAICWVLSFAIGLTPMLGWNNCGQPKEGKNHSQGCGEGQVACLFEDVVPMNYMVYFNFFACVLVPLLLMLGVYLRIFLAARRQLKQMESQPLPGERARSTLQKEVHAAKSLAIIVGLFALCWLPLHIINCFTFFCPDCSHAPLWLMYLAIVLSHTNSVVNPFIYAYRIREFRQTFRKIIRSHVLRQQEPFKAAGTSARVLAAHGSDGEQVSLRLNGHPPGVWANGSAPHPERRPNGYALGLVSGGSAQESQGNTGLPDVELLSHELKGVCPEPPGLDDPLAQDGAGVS

With `Nc1sc(-c2ccc(Cl)cc2)c(CN2CCN(c3ccccc3C(F)(F)F)CC2)c1C(=O)c1ccc(Cl)cc1`, the inhibition in assay [1] was less than 12%; in assay [3] it was 62%; in assay [5], 66%; in assay [6] it was less than 12%; in assay [7] it was less than 12%. Also, the fold change (FC) in assay [2] stood at 8.1. In assay [4], the Ratio Ki amounted to 7.2.

`Cc1sc(N)c(C(=O)c2ccc(Cl)cc2)c1CN1CCN(c2cccc(Cl)c2)CC1`: the inhibition in assay [1] is less than 12%; in assay [3], 54%; in assay [5], 58%; in assay [6], less than 12%; in assay [7] it was less than 12%. In addition, the fold change (FC) in assay [2] stood at 6.5. Further, the Ratio Ki in assay [4] is 6.1.

Take `Nc1sc(-c2ccc(Cl)cc2)c(CN2CCN(c3ccc(OC(F)(F)F)cc3)CC2)c1C(=O)c1ccc(Cl)cc1`: the inhibition in assay [1] was less than 12%; in assay [3], 72%; in assay [5], 78%; in assay [6], less than 12%; in assay [7], less than 12%. In assay [2], the fold change (FC) came to 10.7. In assay [4], the Ratio Ki worked out at 8.9.

As to `Nc1sc(-c2ccc(Cl)cc2)c(CN2CCN(c3ccc(F)cc3)CC2)c1C(=O)c1ccc(Cl)cc1`, the inhibition in assay [1] was less than 12%; in assay [3] it was 68%; in assay [5], 71%; in assay [6], less than 12%; in assay [7] it was less than 12%. Also, the fold change (FC) in assay [2] turned out to be 9.5. Also, the Ratio Ki in assay [4] came to 8.3.

For the compound `Cc1sc(N)c(C(=O)c2ccc(Cl)cc2)c1CN1CCN(c2ccc(Br)cc2)CC1`, the inhibition was less than 12% in assay [1]; 46% in assay [3]; 49% in assay [5]; less than 12% in assay [6]; less than 12% in assay [7]. Besides, in assay [2], the fold change (FC) worked out at 4.9. In assay [4], the Ratio Ki stood at 4.5.

As to `Nc1scc(CN2CCN(c3ccc(Cl)cc3)CC2)c1C(=O)c1ccc(Cl)cc1`, the fold change (FC) in assay [2] came out at 7. Further, the Ratio Ki in assay [4] came out at 5.6.

Turning to `Nc1sc(-c2ccccc2)c(CN2CCN(c3cccc(C(F)(F)F)c3)CC2)c1C(=O)c1ccc(Cl)cc1`, the inhibition in assay [1] was less than 12%; in assay [3], 60%; in assay [5], 63%; in assay [6] it was less than 12%; in assay [7] it was less than 12%. Besides, the fold change (FC) in assay [2] came out at 7.5. Moreover, the Ratio Ki in assay [4] amounted to 7.1.

Take `Cc1ccc(N2CCN(Cc3c(C)sc(N)c3C(=O)c3ccc(Cl)cc3)CC2)cc1`: the inhibition was less than 12% in assay [1]; 58% in assay [3]; 61% in assay [5]; less than 12% in assay [6]; less than 12% in assay [7]. Further, the fold change (FC) in assay [2] is 6.6. Moreover, the Ratio Ki in assay [4] worked out at 5.9.

Consider `Nc1sc(Br)c(CN2CCN(c3ccccc3)CC2)c1C(=O)c1ccc(Cl)cc1`, for which the inhibition in assay [1] is less than 12%; in assay [3] it was 43%; in assay [5], 48%; in assay [6], less than 12%; in assay [7], less than 12%. The fold change (FC) in assay [2] came out at 4.7. The Ratio Ki in assay [4] worked out at 4.5.

In the case of `Cc1sc(N)c(C(=O)c2cccc(C(F)(F)F)c2)c1C`, the fold change (FC) in assay [2] is 1.3. In assay [3], the inhibition stood at 22%. In addition, the Ratio Ki in assay [4] was found to be 1.6. The inhibition result in assay [6] and in assay [7] was “inactive” throughout.

Consider `Nc1scc(CN2CCN(c3ccc(OC(F)(F)F)cc3)CC2)c1C(=O)c1ccc(Cl)cc1`, for which the fold change (FC) in assay [2] is 6.8. Further, the Ratio Ki in assay [4] worked out at 5.3.

`Nc1scc(CN2CCN(c3ccc(C(F)(F)F)cc3)CC2)c1C(=O)c1ccc(Cl)cc1`: in assay [2], the fold change (FC) worked out at 7.7. Also, the Ratio Ki in assay [4] was determined as 6.3.
